In the assay the target is T1, hCRTH2 (Homo sapiens, UniProt Q9Y5Y4).
T1 construct: expressed in transfected cells; host or cells: HEK (human embryonic kidney) cells expressing hCRTH2; membrane preparation
T1 sequence (Q9Y5Y4 1-395): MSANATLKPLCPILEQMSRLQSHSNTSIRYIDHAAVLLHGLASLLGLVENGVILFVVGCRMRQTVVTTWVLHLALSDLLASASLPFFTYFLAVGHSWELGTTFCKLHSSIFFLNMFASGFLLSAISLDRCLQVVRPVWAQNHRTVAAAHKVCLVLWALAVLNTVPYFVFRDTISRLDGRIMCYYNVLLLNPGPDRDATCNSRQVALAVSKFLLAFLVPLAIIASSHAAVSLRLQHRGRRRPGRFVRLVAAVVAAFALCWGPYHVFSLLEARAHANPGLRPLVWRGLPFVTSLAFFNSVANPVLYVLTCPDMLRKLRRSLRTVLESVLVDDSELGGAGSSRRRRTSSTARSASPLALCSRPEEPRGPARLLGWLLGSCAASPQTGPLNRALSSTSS
The experiment in a line: Radioligand binding assay ([3H]PGD2 competition, HEK-hCRTH2 membranes). In a few lines:
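Membranes (8-20 μg protein) from HEK-hCRTH2 cells were incubated 60 min at room temperature with 3.0 nM [3H]PGD2 in 50 mM Tris-HCl pH 7.4, 1 mM EDTA, 2 mM MnCl2, 1% DMSO. Non-specific binding defined with 10 μM PGD2. Bound radioactivity counted after filtration.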

Where [1] appears, read: [3H]PGD2 binding, rated A-E (Table A).
The mark [2] stands for this setting: [3H]PGD2 binding, values in text.

Turning to `CC(CCCc1nc2cc(C(=O)NC3Cc4ccccc4C3)ccc2nc1-c1ccc(C(F)(F)F)cc1)C(=O)O` (stereo not drawn) [18G, 7-[[(2,3-dihydro-1H-inden-2-yl)amino]carbonyl]-alpha-methyl-3-[4-(trifluoromethyl)phenyl]-2-quinoxalinepentanoic acid], the inhibitory constant (Ki) under setting [1] was 0.1 to 2 nM.
Consider `O=C(O)CCCCc1nc2cc(C(=O)N3CC4(CCNCC4)C3)ccc2nc1-c1ccccc1` [15i, 5-[7-(2,7-diazaspiro-[3.5]non-2-ylcarbonyl)-3-phenylquinoxalin-2-yl]pentanoic acid], for which the Ki under setting [1] is 201 to 700 nM and the affinity under setting [2], expressed as Ki, was 283 nM.
Regarding `O=C(O)CCCCc1nc2cc(C(=O)N[C@@H](c3ccc(Cl)cc3)C(F)(F)F)ccc2nc1-c1ccc(Cl)cc1` [16W], the Ki is 0.1 to 2 nM under setting [1] and 0.4 nM under setting [2].
The compound `O=C(O)CCCCc1nc2cc(C(=O)N3CCCCC3c3ccccn3)ccc2nc1-c1ccc(Cl)cc1` (stereo not drawn) [compound 647, 5-(3-(4-chlorophenyl)-7-(2-(pyridin-2-yl)piperidine-1-carbonyl)quinoxalin-2-yl)pentanoic acid] yielded a Ki ([3H]PGD2 competition, Table B) of 20.1 to 200 nM.
Regarding `O=C(O)CCCCc1nc2cc(C(=O)N3CCC(n4c(=O)[nH]c5ccccc54)CC3)ccc2nc1-c1ccc(Cl)cc1` [compound 626, 5-(3-(4-chlorophenyl)-7-(4-(2-oxo-2,3-dihydro-1H-benzo[d]imidazol-1-yl)piperidine-1-carbonyl)quinoxalin-2-yl)pentanoic acid], under “[3H]PGD2 competition, Table B”, the Ki was in the range of 2.1 to 20 nM.
In the case of `O=C(O)CCCCc1nc2cc(NC(=O)Cc3ccc(Cl)c(Cl)c3)ccc2nc1-c1ccccc1` [compound 11], the Ki under setting [1] was 20.1 to 200 nM.
As to `O=C(O)CCCCc1nc2cc(C(=O)N[C@@H](c3ccc(F)cc3)C(F)(F)F)ccc2nc1-c1ccc(Cl)cc1` [16Y, 3-(4-chlorophenyl)-7-[[[2,2,2-trifluoro-1(S)-(4-fluorophenyl)ethyl]amino]carbonyl]-2-quinoxalinepentanoic acid], the Ki under setting [1] fell in the range of 0.1 to 2 nM.
In turn, `CC[C@H](NC(=O)c1ccc2nc(-c3ccc(Cl)cc3)c(CCCCC(=O)O)nc2c1)c1ccc(F)cc1` [compound 377] had a Ki ([3H]PGD2 competition, Table B) of 2.1 to 20 nM.
Consider `C[C@H](NC(=O)c1ccc2nc(-c3ccc(Cl)cc3)c(CCCCC(=O)O)nc2c1)c1cc(F)cc(F)c1` [compound 413, (S)-5-(3-(4-chlorophenyl)-7-((1-(3,5-difluorophenyl)ethyl)carbamoyl)quinoxalin-2-yl) pentanoic acid], for which the Ki ([3H]PGD2 competition, Table B) is 0.1 to 2 nM.
The compound `C[C@H](CCc1nc2cc(C(=O)N[C@@H]3CCCc4ccccc43)ccc2nc1-c1ccccc1)CC(=O)O` [compound 276, (R)-3-methyl-5-(3-phenyl-7-(((R)-1,2,3,4-tetrahydronaphthalen-1-yl)carbamoyl)quinoxalin-2-yl)pentanoic acid] gave a Ki ([3H]PGD2 competition, Table B) of 2.1 to 20 nM.
Same read-out and setting: then `O=C(O)Cc1cccc(CCCc2nc3cc(C(=O)N4CC(c5cccc(F)c5)C4)ccc3nc2-c2ccc(F)cc2)c1` [compound 273, 2-(3-(3-(3-(4-fluorophenyl)-7-(3-(3-fluorophenyl)azetidine-1-carbonyl)quinoxalin-2-yl)propyl)phenyl)acetic acid], with 20.1 to 200 nM.
In turn, `O=C(N[C@H](c1ccc(F)cc1)C(F)(F)F)c1ccc2nc(-c3ccccc3)c(CCCC(F)(F)C(=O)O)nc2c1` [compound 469, (R)-2,2-difluoro-5-(3-phenyl-7-((2,2,2-trifluoro-1-(4-fluorophenyl)ethyl)carbamoyl)quinoxalin-2-yl)pentanoic acid] came in with a Ki ([3H]PGD2 competition, Table B) of 201 to 700 nM.
`CC(CCc1nc2cc(C(=O)N[C@H](C)c3ccc(F)cc3)ccc2nc1-c1ccc(Cl)cc1)CC(=O)O` (stereo partly drawn) [compound 429, 5-(3-(4-chlorophenyl)-7-(((R)-1-(4-fluorophenyl)ethyl)carbamoyl)quinoxalin-2-yl)-3-methylpentanoic acid]: where the note is “[3H]PGD2 competition, Table B”, the inhibition constant Ki fell in the range of 0.1 to 2 nM.
Compound `O=C(O)CCCCc1nc2cc(C(=O)NC3CCCOc4ccccc43)ccc2nc1-c1ccc(Cl)cc1` (stereo not drawn) [compound 561, 5-(3-(4-chlorophenyl)-7-((2,3,4,5-tetrahydrobenzo[b]oxepin-5-yl)carbamoyl)quinoxalin-2-yl)pentanoic acid] registered a Ki ([3H]PGD2 competition, Table B) of 0.1 to 2 nM.
For the setting “[3H]PGD2 competition, Table B”, `CC(CCc1nc2cc(C(=O)N[C@H](C)c3ccc(F)cc3)ccc2nc1-c1ccc(F)cc1)CC(=O)O` (stereo partly drawn) [compound 432, 5-(3-(4-fluorophenyl)-7-(((R)-1-(4-fluorophenyl)ethyl)carbamoyl)quinoxalin-2-yl)-3-methylpentanoic acid] yielded an inhibitory constant (Ki) of 0.1 to 2 nM.
On the same count and under the same terms, then `C[C@@H]1CN(c2ccc(F)cc2)CCN1C(=O)c1ccc2nc(-c3ccccc3)c(CCCCC(=O)O)nc2c1` [compound 265, (R)-5-(7-(4-(4-fluorophenyl)-2-methylpiperazine-1-carbonyl)-3-phenylquinoxalin-2-yl)pentanoic acid], with 2.1 to 20 nM; and `O=C(O)CCCCc1nc2cc(C(=O)N[C@@H]3CCCc4ccncc43)ccc2nc1-c1ccc(F)cc1` [compound 354, (R)-5-(3-(4-fluorophenyl)-7-((5,6,7,8-tetrahydroisoquinolin-8-yl)carbamoyl)quinoxalin-2-yl)pentanoic acid], with 20.1 to 200 nM.
On to `O=C(O)CCCCc1nc2cc(C(=O)NCc3cccc(Cl)c3)ccc2nc1-c1ccc(Cl)cc1` [16F, 3-(4-chlorophenyl)-7-[[[(3-chlorophenyl)methyl]amino]carbonyl]-2-quinoxalinepentanoic acid], for which the inhibition constant (Ki) under setting [1] was in the range of 0.1 to 2 nM.
Take `C[C@H](NC(=O)c1ccc2nc(-c3ccc(Cl)cc3)c(CCCCC(=O)O)nc2c1)c1cccc2ccccc12` [compound 494, (S)-5-(3-(4-chlorophenyl)-7-((1-(naphthalen-1-yl)ethyl)carbamoyl)quinoxalin-2-yl)pentanoic acid]: the Ki ([3H]PGD2 competition, Table B) fell in the range of 2.1 to 20 nM.
Where the note is “[3H]PGD2 competition, Table B”, `C[C@H]1CN(c2ccc(F)cc2)CCN1C(=O)c1ccc2nc(-c3ccc(Cl)cc3)c(CCCCC(=O)O)nc2c1` [compound 490, (S)-5-(3-(4-chlorophenyl)-7-(4-(4-fluorophenyl)-2-methylpiperazine-1-carbonyl)quinoxalin-2-yl)pentanoic acid] showed a Ki of 2.1 to 20 nM.
As for `O=C(O)CCCCc1nc2cc(C(=O)NC3CCC(=O)Nc4ccccc43)ccc2nc1-c1ccc(Cl)cc1` (stereo not drawn) [compound 268, 5-(3-(4-chlorophenyl)-7-((2-oxo-2,3,4,5-tetrahydro-1H-benzo[b]azepin-5-yl)carbamoyl)quinoxalin-2-yl)pentanoic acid], the Ki ([3H]PGD2 competition, Table B) fell in the range of 2.1 to 20 nM.
For `O=C(O)CCCCc1nc2cc(C(=O)NCc3cc(Cl)ccn3)ccc2nc1-c1ccccc1` [15BT, 5-(7-{[(4-chloropyridin-2-yl)methyl]carbamoyl}-3-phenylquinoxalin-2-yl)pentanoic acid], the Ki under setting [1] was 0.1 to 2 nM.
`O=C(c1ccc2nc(-c3ccc(F)cc3)c(CCCC(F)(F)C(=O)O)nc2c1)N1CCC(c2ccccc2)CC1` [compound 531, 2,2-difluoro-5-(3-(4-fluorophenyl)-7-(4-phenylpiperidine-1-carbonyl)quinoxalin-2-yl)pentanoic acid] returned a Ki ([3H]PGD2 competition, Table B) of 2.1 to 20 nM.
Still for that read-out and setting: under `Cc1cccc(C)c1N1CCN(C(=O)c2ccc3nc(-c4ccc(Cl)cc4)c(CCCCC(=O)O)nc3c2)CC1` [compound 628, 5-(3-(4-chlorophenyl)-7-(4-(2,6-dimethylphenyl)piperazine-1-carbonyl)quinoxalin-2-yl)pentanoic acid] stands 0.1 to 2 nM.
In turn, `O=C(O)CCCCc1nc2cc(C(=O)N[C@H](c3ccc(F)cc3)C(F)(F)F)ccc2nc1-c1ccc(F)cc1` [compound 139, 3-(4-fluorophenyl)-7-[[[(1R)-2,2,2-trifluoro-1-(4-fluorophenyl)ethyl]amino]carbonyl]-2-quinoxalinepentanoic acid] returned a Ki under setting [1] of 2.1 to 20 nM.
Under setting [1], `O=C(O)CCCCc1nc2cc(C(=O)NCc3cccc(Cl)c3)ccc2nc1-c1ccc(F)cc1` [compound 101, 7-[[[(3-chlorophenyl)methyl]amino]carbonyl]-3-(4-fluorophenyl)-2-quinoxalinepentanoic acid] gave an inhibition constant Ki of 2.1 to 20 nM.
On to `O=C(O)CCCCc1nc2cc(C(=O)N3CC(c4cccc(Cl)c4)C3)ccc2nc1-c1ccc(Cl)cc1` [compound 425, 5-(3-(4-chlorophenyl)-7-(3-(3-chlorophenyl)azetidine-1-carbonyl)quinoxalin-2-yl)pentanoic acid], for which the Ki ([3H]PGD2 competition, Table B) was 0.1 to 2 nM.
`O=C(O)CCCCc1nc2cc(C(=O)N3CCc4oc(C5CC5)nc4C3)ccc2nc1-c1ccc(Cl)cc1` [compound 347, 5-(3-(4-chlorophenyl)-7-(2-cyclopropyl-4,5,6,7-tetrahydrooxazolo[4,5-c]pyridine-5-carbonyl)quinoxalin-2-yl)pentanoic acid] came in with a Ki ([3H]PGD2 competition, Table B) of 20.1 to 200 nM.
With `C[C@@H](NC(=O)c1ccc2nc(-c3ccc(F)cc3)c(CCCCC(=O)O)nc2c1)c1ccc(Cl)cc1` [compound 130, 7-[[[1(R)-(4-chlorophenyl)ethyl]amino]carbonyl]-3-(4-fluorophenyl)-2-quinoxalinepentanoic acid], the Ki under setting [1] lay in the range of 0.1 to 2 nM.
For `O=C(O)CCCCc1nc2cc(C(=O)N3CCCN(Cc4ccccc4)CC3)ccc2nc1-c1ccc(Cl)cc1` [compound 591, 5-(7-(4-benzyl-1,4-diazepane-1-carbonyl)-3-(4-chlorophenyl)quinoxalin-2-yl)pentanoic acid], the Ki ([3H]PGD2 competition, Table B) was in the range of 2.1 to 20 nM.
With `C[C@@H]1CN(c2ccc(F)cc2)CCN1C(=O)c1ccc2nc(-c3ccccc3)c(NCCCC(=O)O)nc2c1` [compound 44, (R)-4-((7-(4-(4-fluorophenyl)-2-methylpiperazine-1-carbonyl)-3-phenylquinoxalin-2-yl)amino)butanoic acid], under setting [1], the inhibitory constant (Ki) lay in the range of 2.1 to 20 nM.

What is called Ki is the dissociation constant of the complex between target and ligand, obtained from inhibition or displacement. High values mean a looser hold on the target, low ones a stronger hold on the target.

The values are drawn from US9469615B2, “Quinoxalines and AZA-quinoxalines as CRTH2 receptor modulators” (Merck Sharp & Dohme Corp., priority 2010, dated 2016).
